Experimental data as given in patent publication US20040018150A1, “Prodrugs of phosphonate nucleotide analogues and methods for selecting and making same” (priority 2003, published 2004).

What was measured:
[1] = Stability in human plasma; assay type: in vitro ADME
Protocol: (§1) The in vitro metabolism and stability of separated diastereomers were determined in PLCE, MT-2 extract and human plasma. A biological sample listed below, 80 μL, was transferred into a screw-capped centrifuge tube and incubated at 37° C. for 5 min. A solution containing 0.2 mg/mL of the test compound in a suitable buffer, 20 μL, was added to the biological sample and mixed. The reaction mixture, 20 μL, was immediately sampled and mixed with 60 μL of methanol containing 0.015 mg/mL of 2-hydroxymethylnaphthalene as an internal standard for HPLC analysis. The sample was taken as the time-zero sample. Then, at specific time points, the reaction mixture, 20 μL, was sampled and mixed with 60 μL of methanol containing the internal standard. The mixture thus obtained was centrifuged at 15,000 G for 5 min and the supernatant was analyzed with HPLC under the conditions described below.
(3) Human plasma (pooled normal human plasma from George King Biomedical Systems, Inc.)
In the study for human plasma, the test compound was dissolved in TBS. TBS (tris-buffered saline, Sigma) contains 0.05 M Tris, 0.0027 M potassium chloride, and 0.138 M sodium chloride. pH 7.5 at 37° C.
(§2) The HPLC analysis was carried out under the following conditions.

[2] = Stability / hydrolysis in MT-2 cell extract; assay type: in vitro ADME
Protocol: as §1
(2) MT-2 cell extract was prepared from MT-2 cells according to the published procedure [A. Pompon, I. Lefebvre, J.-L. Imbach, S. Kahn, and D. Farquhar, “Antiviral Chemistry & Chemotherapy”, 5:91-98 (1994)] except for using HEPES buffer described below as the medium.
In the study for MT-2 cell extracts, the test compound was dissolved in HEPES buffer. HEPES buffer contains 0.010 M HEPES, 0.05 M potassium chloride, 0.005 M magnesium chloride, and 0.005 M dl-dithiothreitol. pH 7.4 at 37° C.
as §2

[3] = test system: PLCE (porcine liver carboxyesterase); assay: in vitro; assay type: in vitro ADME
Protocol: as §1
(1) PLCE (porcine liver carboxyesterase from Sigma, 160 u/mg protein, 21 mg protein/mL) diluted 20 fold with PBS (phosphated-buffered saline).
In the study for PLCE, the test compound was dissolved in PBS. PBS (phosphate-buffered saline, Sigma) contains 0.01 M phosphate, 0.0027 M potassium chloride, and 0.137 M sodium chloride. pH 7.4 at 37° C.
as §2

[4] = Incubation of radiolabeled PMPA prodrugs or PMPA in human whole blood; metabolites in plasma, PBMCs and RBCs; assay type: in vitro ADME; details: for Metabolites (% of Total Peak Area): PMPA: human blood, 1 h
Protocol: After 1 hour, plasma, red blood cells (RBCs) and peripheral blood mononuclear cells (PBMCs) were isolated and analyzed by HPLC with radiometric detection.

[5] = Excretion and tissue distribution of radiolabelled prodrug in dogs; details: for % Dose / Conc.: dogs, oral 10 mg-eq. PMPA/kg
Protocol: Plasma and peripheral blood mononuclear cells (PBMCs) were obtained over the 24-hr period. Urine and feces were cage collected over 24 hr. At 24 h after the dose, the animals were sacrificed and tissues removed for analysis. Total radioactivity in tissues was determined by oxidation and liquid scintillation counting.

With `CC(C)OC(=O)OCOP(=O)(CO[C@H](C)Cn1cnc2c(N)ncnc21)OCOC(=O)OC(C)C.O=C(O)/C=C/C(=O)O` [TDF, tenofovir disoproxil fumarate, reference compound] the “Human Plasma Stability (HP) product” value ([1]; 37° C., TBS pH 7.5) was “monoPOC PMPA”, the “Stability T 1/2 Human Plasma” value ([1]; human, plasma) was 0.41 min and the “Human Plasma Stability (HP) t1/2” value ([1]; human, plasma, pH 7.5) was 0.41. The “Stability T 1/2 MT-2 Cell Extract” value [2] was 70.7 min, the “MT-2 extract hydrolysis product” value ([2]; 37° C., HEPES buffer pH 7.4) was “monoPOC PMPA” and the “MT-2 extract hydrolysis rate t1/2” value ([2]; pH 7.4) was 70.7 min. The PLCE hydrolysis product ([3]; 37° C., PBS pH 7.4) was “MonoPOC PMPA”, the “PLCE hydrolysis rate t1/2” value ([3]; pH 7.4) was < 0.14 min and the “Metabolites (% of Total Peak Area): PMPApp” value [4] was 18%. For the same molecule, the “Metabolites (% of Total Peak Area): PMPA” value ([4]; PBMC) was 50%, the “Metabolites (% of Total Peak Area): PMPA” value ([4]; Plasma/FP) was 11% and the “Metabolites (% of Total Peak Area): PMPA” value ([4]; RBC/FP) was 93%. The “% Dose” value ([5]; Abdominal fat, 24 h) was 0.00%, the Conc. ([5]; Abdominal fat, 24 h) was 0.16 ug-eq/g and the “% Dose” value ([5]; Adrenal Gland, 24 h) was 0.00%. For the same molecule, the Conc. ([5]; Adrenal Gland, 24 h) was 1.90 ug-eq/g, the “% Dose” value ([5]; Axillary Lymph Nodes, 24 h) was 0.00% and the Conc. ([5]; Axillary Lymph Nodes, 24 h) was 0.37 ug-eq/g. The “% Dose” value ([5]; Bile, 24 h) was 0.00%, the Conc. ([5]; Bile, 24 h) was 9.63 ug-eq/g and the “% Dose” value ([5]; Bone Marrow, 24 h) was 0.00%. The Conc. ([5]; Bone Marrow, 24 h) was 0.20 ug-eq/g, the “% Dose” value ([5]; Brain, 24 h) was 0.00% and the Conc. ([5]; Brain, 24 h) was “<LOD”. For the same molecule, the “% Dose” value ([5]; Cerebrospinal Fluid, 24 h) was 0.00%, the Conc. ([5]; Cerebrospinal Fluid, 24 h) was “<LOD” and the “% Dose” value ([5]; Duodenum, 24 h) was 0.49%. For the same molecule, the Conc. ([5]; Duodenum, 24 h) was 4.96 ug-eq/g, the “% Dose” value ([5]; Eye (L + R), 24 h) was 0.00% and the Conc. ([5]; Eye (L + R), 24 h) was 0.06 ug-eq/g. The “% Dose” value ([5]; Feces, collected over 24 hr) was 40.96%, the “% Dose” value ([5]; Femoral Bone, 24 h) was 0.00% and the Conc. ([5]; Femoral Bone, 24 h) was 0.08 ug-eq/g. The “% Dose” value ([5]; Gall bladder, 24 h) was 0.00%, the Conc. ([5]; Gall bladder, 24 h) was 3.58 ug-eq/g and the “% Dose” value ([5]; Heart, 24 h) was 0.03%. For the same molecule, the Conc. ([5]; Heart, 24 h) was 0.46 ug-eq/g, the “% Dose” value ([5]; Ileum, 24 h) was 0.01% and the Conc. ([5]; Ileum, 24 h) was 0.50 ug-eq/g. The “% Dose” value ([5]; Iliac Lymph Nodes, 24 h) was 0.00%, the Conc. ([5]; Iliac Lymph Nodes, 24 h) was 0.51 ug-eq/g and the “% Dose” value ([5]; Inguinal Lymph Nodes, 24 h) was 0.00%. For the same molecule, the Conc. ([5]; Inguinal Lymph Nodes, 24 h) was 0.28 ug-eq/g, the “% Dose” value ([5]; Jejunum, 24 h) was 1.34% and the Conc. ([5]; Jejunum, 24 h) was 3.01 ug-eq/g. For the same molecule, the “% Dose” value ([5]; Kidney, 24 h) was 4.58%, the Conc. ([5]; Kidney, 24 h) was 87.90 ug-eq/g and the “% Dose” value ([5]; Large Intestine, 24 h) was 1.63%. For the same molecule, the Conc. ([5]; Large Intestine, 24 h) was 5.97 ug-eq/g, the “% Dose” value ([5]; Liver, 24 h) was 12.40% and the Conc. ([5]; Liver, 24 h) was 38.30 ug-eq/g. The “% Dose” value ([5]; Lungs, 24 h) was 0.03%, the Conc. ([5]; Lungs, 24 h) was 0.53 ug-eq/g and the “% Dose” value ([5]; Mesenteric Lymph Nodes, 24 h) was 0.00%. For the same molecule, the Conc. ([5]; Mesenteric Lymph Nodes, 24 h) was 1.20 ug-eq/g, the “% Dose” value ([5]; PBMC) was 0.00% and the “% Dose” value ([5]; Pancreas, 24 h) was 0.00%. For the same molecule, the Conc. ([5]; Pancreas, 24 h) was 0.57 ug-eq/g, the “% Dose” value ([5]; Pituitary Gland, 24 h) was 0.00% and the Conc. ([5]; Pituitary Gland, 24 h) was 0.23 ug-eq/g. For the same molecule, the Conc. ([5]; Plasma at 0.25 h) was 3.68 ug-eq/g, the “% Dose” value ([5]; Plasma at 24 h) was 0.00% and the Conc. ([5]; Plasma at 24 h) was 0.20 ug-eq/g. The “% Dose” value ([5]; Prostate, 24 h) was 0.00%, the Conc. ([5]; Prostate, 24 h) was 0.23 ug-eq/g and the “% Dose” value ([5]; Salivary Gland (L + R), 24 h) was 0.00%. The Conc. ([5]; Salivary Gland (L + R), 24 h) was 0.45 ug-eq/g, the “% Dose” value ([5]; Skeletal Muscle, 24 h) was 0.00% and the Conc. ([5]; Skeletal Muscle, 24 h) was 0.11 ug-eq/g. For the same molecule, the “% Dose” value ([5]; Skin, 24 h) was 0.00%, the Conc. ([5]; Skin, 24 h) was 0.13 ug-eq/g and the “% Dose” value ([5]; Spinal Cord, 24 h) was 0.00%. For the same molecule, the Conc. ([5]; Spinal Cord, 24 h) was “<LOD”, the “% Dose” value ([5]; Spleen, 24 h) was 0.00% and the Conc. ([5]; Spleen, 24 h) was 0.63 ug-eq/g. The “% Dose” value ([5]; Stomach, 24 h) was 0.11%, the Conc. ([5]; Stomach, 24 h) was 1.92 ug-eq/g and the “% Dose” value ([5]; Testes (L + R), 24 h) was 0.02%. The Conc. ([5]; Testes (L + R), 24 h) was 1.95 ug-eq/g, the “% Dose” value ([5]; Thyroid Gland, 24 h) was 0.00% and the Conc. ([5]; Thyroid Gland, 24 h) was 0.30 ug-eq/g. For the same molecule, the “% Dose” value ([5]; Total GI Tract Contents, 24 h) was 5.61%, the “% Dose” value ([5]; Total Recovery, 24 h) was 81.10% and the “% Dose” value ([5]; Urine, collected over 24 hr) was 23.72%. The “% Dose” value ([5]; Whole Blood, 24 h) was 0.00%, the Conc. ([5]; Whole Blood, 24 h) was 0.85 ug-eq/g and the “main species observed in plasma” value ([5]; dog, in vivo, po) was “the parent drug”. For the same molecule, the “prodrug concentration in the plasma” value ([5]; dog, in vivo, po) was “below the level of assay detection” and the CC50 (MT-2 cells) was 70 µM.
